One data set has as its system femoral bone fracture. The data set is described as follows: Bone quality examined after 35 treatment days (decalcified and non-decalcified). The format is in vivo, Sprague Dawley rats. The settings on record: following 35 treatment days, none-decalcification. Here is the method:
Pseudo-fractures were created by making a trough on one surface of the femoral shaft through one side of the cortex. The compositions were administered locally by daily injection. Animals: Naive male Sprague Dawley rats (SD rats), 12 weeks old, around 350 g. Right leg was treated while the left leg serves as a control (vehicle).
Bone quality was examined after 35 treatment days. For the G1−B+L group, cell proliferation was improved by >44% compared to untreated bone.
Bone endosteal & periosteal proliferation, defect fill and bone quality were evaluated following 35 treatment days of femoral bone fracture with β-caryophyllene (none-decalcification).

Data set [1] deals with Human primary osteoblast cells. The settings on record: osteoblasts, 24 and 96 hours, tested 0 to 6,561 μM. The procedure: (§1) In vitro cytotoxicity & proliferation assay (basal) are being performed on human osteoblasts and stem cells monolayers.
Human primary osteoblast cells are maintained in a 37° C. humidified incubator with 5% CO2 atmosphere. Cells are cultured in Primary Osteoblast Media containing Primary Osteoblast Culture Supplement and 1% of the penicillin/streptomycin stock solution.

A further data set has as its system MUTZ-3 cells. The note with it: MUTZ-3, 24 and 96 hours, tested 0 to 6,561 μM. Here is the method:
as §1
As a human primary osteoclast cell is unable to proliferate, MUTZ-3, a human cell line model for osteoclast differentiation is also being used. MUTZ-3 cells are maintained in a 37° C. humidified incubator with 5% CO2 atmosphere. Cells are cultured in Dulbecco's modified Eagle's Medium (DMEM) supplemented with 10% foetal calf serum and 1% of the penicillin streptomycin stock solution.

We go through 1 substance from patent publication US20240382450A1, “COMPOSITION OF B-CAR[…] A STATIN, AND METHODS OF USING SAME” (OrthoTreat Ltd., priority 2021, published 2024).

In the case of (−)-β-caryophyllene, in the data set with femoral bone fracture, the bone quality result is listed as “Significant improvement”; the defect fill entry is recorded as “Significant improvement”; the “endosteal and periosteal proliferation” value is “Significant improvement”. Also, the “concentration without significant cytotoxic effect” value in data set [1] is recorded as “up to 27 μM”. For the same substance, the “concentration without significant cytotoxic effect” value with MUTZ-3 cells was “up to 27 μM”.
